Reference: PubChem BioAssay AID190 (DTP/NCI, 2004)
“And” between values parts separate entries of the source, which are not always exact repeats. Identical values can stand only once. Toxic doses and inconclusive results are not listed. How the source made its calls: active means survival T/C of 150% or more; inactive means T/C below 125% in these data.

System: AKR/Lw mice, AKR lymphoma ip, median survival T/C
Assay: NCI In Vivo Anticancer Drug Screen. Data for tumor model Lymphoma AKR (Transplanted) (intraperitoneal) in AKR/Lw mice
Conditions: endpoint: median survival time, higher = longer survival
Method: The antitumor activity of compounds was measured in mice bearing transplantable tumors. Survival or tumor size were measured and the results are expressed as the measurement made in the treated group (T) divided by the measurement made in the vehicle treated control group (C). The tumor model used in this assay is Lymphoma AKR (Transplanted) (intraperitoneal) in AKR/Lw mice

[1] = dose: 100.0 mg/kg/injection, schedule: Q01DX001 (ip), vehicle: saline
[2] = dose: 100.0 mg/kg/injection, schedule: Q04DX003 (ip), vehicle: saline
[3] = dose: 200.0 mg/kg/injection, schedule: Q01DX001 (ip), vehicle: saline
[4] = dose: 400.0 mg/kg/injection, schedule: Q01DX001 (ip), vehicle: saline
[5] = dose: 100.0 mg/kg/injection, schedule: Q01DX001 (ip), vehicle: Klucel (hydroxypropylcellulose) (HPC)
[6] = dose: 200.0 mg/kg/injection, schedule: Q01DX001 (ip), vehicle: Klucel (hydroxypropylcellulose) (HPC)
[7] = dose: 12.5 mg/kg/injection, schedule: Q01DX009 (ip), vehicle: saline
[8] = dose: 25.0 mg/kg/injection, schedule: Q01DX001 (ip), vehicle: saline
[9] = dose: 25.0 mg/kg/injection, schedule: Q04DX003 (ip), vehicle: saline
[10] = dose: 50.0 mg/kg/injection, schedule: Q01DX001 (ip), vehicle: saline
[11] = dose: 50.0 mg/kg/injection, schedule: Q04DX003 (ip), vehicle: other
[12] = dose: 100.0 mg/kg/injection, schedule: Q04DX003 (ip), vehicle: other
[13] = dose: 25.0 mg/kg/injection, schedule: Q01DX009 (ip), vehicle: saline
[14] = dose: 50.0 mg/kg/injection, schedule: Q01DX009 (ip), vehicle: saline

Measured: T/C

CC(/C=N/N=C(N)N)=N\N=C(N)N
inactive: dose: 1.5 mg/kg/injection, schedule: Q01DX015 (ip), vehicle: saline 87 % of control | dose: 5.0 mg/kg/injection, schedule: Q01DX015 (ip), vehicle: saline 90 % of control | dose: 6.25 mg/kg/injection, schedule: Q01DX015 (ip), vehicle: saline 96 % of control | dose: 10.0 mg/kg/injection, schedule: Q01DX015 (ip), vehicle: saline 90 % of control

O=C(NC(CSSCC(NC(=O)OCc1ccccc1)C(=O)O)C(=O)O)OCc1ccccc1 (centres undefined)
inactive: [1] 107 % of control | [2] 100 % of control | [3] 107 % of control | [4] 102 % of control | dose: 400.0 mg/kg/injection, schedule: Q04DX003 (ip), vehicle: saline 89 % of control

CCOc1ccc2nc(N)sc2c1
inactive: [5] 89 % of control | [6] 92 % of control

COc1cc2c(cc1OC)C(C#N)C2 (centres undefined)
inactive: [5] 100 % of control | [6] 100 % of control | dose: 400.0 mg/kg/injection, schedule: Q01DX001 (ip), vehicle: Klucel (hydroxypropylcellulose) (HPC) 94 % of control

O=C[C@@H](CO)O[C@H](C=O)n1cnc2c(=O)[nH]cnc21
inactive: dose: 3.0 mg/kg/injection, schedule: Q01DX009 (ip), vehicle: saline 104 % of control and 123 % of control | dose: 6.0 mg/kg/injection, schedule: Q01DX009 (ip), vehicle: saline 102 % of control and 108 % of control and 121 % of control | dose: 6.2 mg/kg/injection, schedule: Q04DX003 (ip), vehicle: saline 102 % of control | dose: 6.25 mg/kg/injection, schedule: Q01DX009 (ip), vehicle: saline 112 % of control | dose: 12.0 mg/kg/injection, schedule: Q01DX009 (ip), vehicle: saline 100 % of control and 112 % of control | [7] 94 % of control and 106 % of control | dose: 12.5 mg/kg/injection, schedule: Q04DX003 (ip), vehicle: saline 100 % of control and 105 % of control | dose: 24.0 mg/kg/injection, schedule: Q01DX009 (ip), vehicle: saline 112 % of control | [8] 89 % of control and 105 % of control | [9] 87 % of control and 113 % of control | [10] 89 % of control | dose: 60.0 mg/kg/injection, schedule: Q04DX003 (ip), vehicle: water 114 % of control | [1] 92 % of control and 97 % of control (2×) | dose: 500.0 mg/kg/injection, schedule: Q01DX001 (ip), vehicle: saline 120 % of control
active: dose: 240.02 mg/kg/injection, schedule: Q04DX003 (ip), vehicle: water 222 % of control
103 % of control and 238 % of control: dose: 75.0 mg/kg/injection, schedule: Q01DX009 (ip), vehicle: saline

COc1ccc(S(=O)O)cc1NC(C)=O
inactive: [11] 95 % of control | [1] 107 % of control | [12] 97 % of control | [3] 101 % of control | dose: 200.0 mg/kg/injection, schedule: Q04DX003 (ip), vehicle: other 95 % of control

CCOC(=O)C(O)C(C#N)c1ccccc1 (centres undefined)
inactive: dose: 100.0 mg/kg/injection, schedule: Q01DX001 (ip), vehicle: other 103 % of control | dose: 200.0 mg/kg/injection, schedule: Q01DX001 (ip), vehicle: other 103 % of control | dose: 400.0 mg/kg/injection, schedule: Q01DX001 (ip), vehicle: other 100 % of control

CCCCCCCCCCCCCCCC(=O)N(CCCN)CCCCCCCCCN(CCCN)C(=O)CCCCCCCCCCCCCCC
inactive: [7] 100 % of control | [13] 92 % of control | [14] 107 % of control | [11] 95 % of control | [1] 108 % of control | [12] 95 % of control

COc1ccc2cc1Oc1ccc(cc1)C[C@H]1c3cc(c(OC)cc3CCN1C)Oc1c(OC)c(OC)cc3c1[C@H](C2)N(C)CC3
inactive: dose: 6.2 mg/kg/injection, schedule: Q01DX009 (ip), vehicle: Klucel (hydroxypropylcellulose) (HPC) 110 % of control | dose: 7.5 mg/kg/injection, schedule: Q01DX009 (ip), vehicle: saline 90 % of control | dose: 12.5 mg/kg/injection, schedule: Q01DX009 (ip), vehicle: Klucel (hydroxypropylcellulose) (HPC) 107 % of control and 113 % of control | [7] 111 % of control | dose: 25.0 mg/kg/injection, schedule: Q01DX001 (ip), vehicle: Klucel (hydroxypropylcellulose) (HPC) 94 % of control (2×) and 97 % of control | [8] 95 % of control | dose: 25.0 mg/kg/injection, schedule: Q01DX009 (ip), vehicle: Klucel (hydroxypropylcellulose) (HPC) 97 % of control and 100 % of control (2×) | [13] 94 % of control | dose: 25.0 mg/kg/injection, schedule: Q04DX003 (ip), vehicle: Klucel (hydroxypropylcellulose) (HPC) 87 % of control | [9] 88 % of control and 109 % of control | dose: 32.0 mg/kg/injection, schedule: Q04DX003 (ip), vehicle: water 100 % of control | dose: 50.0 mg/kg/injection, schedule: Q01DX001 (ip), vehicle: Klucel (hydroxypropylcellulose) (HPC) 94 % of control and 110 % of control | [10] 95 % of control | dose: 50.0 mg/kg/injection, schedule: Q01DX009 (ip), vehicle: Klucel (hydroxypropylcellulose) (HPC) 94 % of control and 107 % of control | [14] 94 % of control and 116 % of control | dose: 50.0 mg/kg/injection, schedule: Q04DX003 (ip), vehicle: Klucel (hydroxypropylcellulose) (HPC) 87 % of control | dose: 50.0 mg/kg/injection, schedule: Q04DX003 (ip), vehicle: saline 97 % of control and 111 % of control and 114 % of control | dose: 64.0 mg/kg/injection, schedule: Q04DX003 (ip), vehicle: water 96 % of control | dose: 75.0 mg/kg/injection, schedule: Q01DX001 (ip), vehicle: Klucel (hydroxypropylcellulose) (HPC) 94 % of control | dose: 100.0 mg/kg/injection, schedule: Q01DX009 (ip), vehicle: Klucel (hydroxypropylcellulose) (HPC) 100 % of control | dose: 100.0 mg/kg/injection, schedule: Q01DX009 (ip), vehicle: saline 100 % of control and 106 % of control | dose: 100.0 mg/kg/injection, schedule: Q04DX003 (ip), vehicle: Klucel (hydroxypropylcellulose) (HPC) 97 % of control | [2] 98 % of control and 100 % of control and 111 % of control | dose: 128.0 mg/kg/injection, schedule: Q04DX003 (ip), vehicle: water 107 % of control | [3] 87 % of control and 104 % of control and 111 % of control | dose: 200.0 mg/kg/injection, schedule: Q01DX009 (ip), vehicle: saline 88 % of control and 94 % of control | dose: 200.0 mg/kg/injection, schedule: Q04DX003 (ip), vehicle: Klucel (hydroxypropylcellulose) (HPC) 100 % of control | dose: 200.0 mg/kg/injection, schedule: Q04DX003 (ip), vehicle: saline 97 % of control | dose: 256.0 mg/kg/injection, schedule: Q04DX003 (ip), vehicle: water 100 % of control | [4] 93 % of control and 100 % of control (2×)
